# Several values for one entry are separate records, joined by “and”; a condition that tells them apart may be missing. Equal entries are not always repeated. Inconclusive results and toxic doses are left out.
# Test system: CD2F1 mice, ip reticulum cell sarcoma, survival T/C
# Test: NCI In Vivo Anticancer Drug Screen. Data for tumor model Reticulum Cell Sarcoma (Kelley Mouse) (intraperitoneal) in CD2F1 (CDF1) mice
# Details: endpoint: median survival time, higher = longer survival
# Experimental: The antitumor activity of compounds was measured in mice bearing transplantable tumors. Survival or tumor size were measured and the results are expressed as the measurement made in the treated group (T) divided by the measurement made in the vehicle treated control group (C). The tumor model used in this assay is Reticulum Cell Sarcoma (Kelley Mouse) (intraperitoneal) in CD2F1 (CDF1) mice
# [1] = dose: 1.0 mg/kg/injection, schedule: Q01DX010 (ip), vehicle: saline
# [2] = dose: 2.0 mg/kg/injection, schedule: Q01DX010 (ip), vehicle: saline
# [3] = dose: 4.0 mg/kg/injection, schedule: Q01DX010 (ip), vehicle: saline
# [4] = dose: 25.0 mg/kg/injection, schedule: Q01DX010 (ip), vehicle: saline
# [5] = dose: 2.5 mg/kg/injection, schedule: Q01DX010 (ip), vehicle: saline
# [6] = dose: 5.0 mg/kg/injection, schedule: Q01DX010 (ip), vehicle: saline
# [7] = dose: 10.0 mg/kg/injection, schedule: Q01DX010 (ip), vehicle: saline
# [8] = dose: 8.0 mg/kg/injection, schedule: Q01DX010 (ip), vehicle: saline
# [9] = dose: 16.0 mg/kg/injection, schedule: Q01DX010 (ip), vehicle: saline
# [10] = dose: 64.0 mg/kg/injection, schedule: Q01DX010 (ip), vehicle: saline
# [11] = dose: 7.5 mg/kg/injection, schedule: Q01DX010 (ip), vehicle: saline
# [12] = dose: 15.0 mg/kg/injection, schedule: Q01DX010 (ip), vehicle: saline
# [13] = dose: 30.0 mg/kg/injection, schedule: Q01DX010 (ip), vehicle: saline
# [14] = dose: 15.6 mg/kg/injection, schedule: Q01DX010 (ip), vehicle: saline
# [15] = dose: 62.5 mg/kg/injection, schedule: Q01DX010 (ip), vehicle: saline
# [16] = dose: 125.0 mg/kg/injection, schedule: Q01DX010 (ip), vehicle: saline
# [17] = dose: 20.0 mg/kg/injection, schedule: Q01DX010 (ip), vehicle: saline
# [18] = dose: 1.25 mg/kg/injection, schedule: Q01DX010 (ip), vehicle: saline
# [19] = dose: 250.0 mg/kg/injection, schedule: Q01DX010 (ip), vehicle: saline
# [20] = dose: 250.0 micrograms/kg/injection, schedule: Q01DX010 (ip), vehicle: saline
# [21] = dose: 500.0 micrograms/kg/injection, schedule: Q01DX010 (ip), vehicle: saline
# [22] = dose: 3.13 mg/kg/injection, schedule: Q01DX010 (ip), vehicle: saline
# [23] = dose: 6.25 mg/kg/injection, schedule: Q01DX010 (ip), vehicle: saline
# [24] = dose: 12.5 mg/kg/injection, schedule: Q01DX010 (ip), vehicle: saline
# [25] = dose: 4.0 mg/kg/injection, schedule: Q01DX010 (ip), vehicle: other
# [26] = dose: 8.0 mg/kg/injection, schedule: Q01DX010 (ip), vehicle: other
smiles,measurement,setting,value
Nc1nc(=S)c2ncn(C3OC(CO)C(O)C3O)c2[nH]1 (centres undefined),T/C,[1],178 % of control
same,T/C,[2],182 % of control
same,T/C,[3],103 % of control
Nc1nc(N)c2nc(CNc3ccc(C(=O)NC(CCC(=O)O)C(=O)O)cc3)cnc2n1 (centres undefined),T/C,"dose: 25.0 micrograms/kg/injection, schedule: Q01DX010 (ip), vehicle: other",105 % of control and 113 % of control
same,T/C,"dose: 50.0 micrograms/kg/injection, schedule: Q01DX010 (ip), vehicle: other",107 % of control and 121 % of control
same,T/C,"dose: 100.0 micrograms/kg/injection, schedule: Q01DX010 (ip), vehicle: other",110 % of control and 121 % of control
same,T/C,"dose: 200.0 micrograms/kg/injection, schedule: Q01DX010 (ip), vehicle: other",94 % of control and 113 % of control
O=[n+]1c2c(n([O-])c3ccccc31)-c1cccc3cccc-2c13,T/C,[4],92 % of control and 100 % of control
same,T/C,"dose: 50.0 mg/kg/injection, schedule: Q01DX010 (ip), vehicle: saline",92 % of control and 106 % of control
same,T/C,"dose: 100.0 mg/kg/injection, schedule: Q01DX010 (ip), vehicle: saline",100 % of control and 103 % of control
same,T/C,"dose: 200.0 mg/kg/injection, schedule: Q01DX010 (ip), vehicle: saline",92 % of control and 100 % of control
CC/C(=C(/CC)c1ccc(O)cc1)c1ccc(O)cc1,T/C,"dose: 12.5 mg/kg/injection, schedule: Q01DX010 (sc), vehicle: steriod suspending solution",105 % of control and 110 % of control
same,T/C,"dose: 25.0 mg/kg/injection, schedule: Q01DX010 (sc), vehicle: steriod suspending solution",105 % of control
same,T/C,"dose: 50.0 mg/kg/injection, schedule: Q01DX010 (sc), vehicle: steriod suspending solution",100 % of control and 110 % of control
same,T/C,"dose: 100.0 mg/kg/injection, schedule: Q01DX010 (sc), vehicle: steriod suspending solution",105 % of control and 115 % of control
S=P(N1CCOCC1)(N1CC1)N1CC1,T/C,[5],100 % of control and 103 % of control
same,T/C,[6],100 % of control and 106 % of control
same,T/C,[7],100 % of control and 106 % of control
Nc1nc(SCc2ccccc2)c2[nH]cnc2n1,T/C,[8],106 % of control
same,T/C,[9],106 % of control
same,T/C,[10],116 % of control
same,T/C,"dose: 128.0 mg/kg/injection, schedule: Q01DX010 (ip), vehicle: saline",112 % of control
Clc1ncnc2nc[nH]c12,T/C,[11],94 % of control and 111 % of control
same,T/C,[12],94 % of control and 100 % of control
same,T/C,[13],97 % of control and 102 % of control
same,T/C,"dose: 60.0 mg/kg/injection, schedule: Q01DX010 (ip), vehicle: saline",100 % of control and 105 % of control
Nc1c(Br)cc2c(c1Br)Cc1cc([N+](=O)[O-])ccc1-2,T/C,[14],100 % of control
same,T/C,"dose: 31.3 mg/kg/injection, schedule: Q01DX010 (ip), vehicle: saline",100 % of control
same,T/C,[15],88 % of control and 103 % of control
same,T/C,[16],94 % of control and 100 % of control
Cc1cc(N(CCCl)CCCl)ccc1N=Nc1ccccc1C(=O)O,T/C,[6],100 % of control
same,T/C,[7],103 % of control
same,T/C,[17],113 % of control and 122 % of control
same,T/C,"dose: 40.0 mg/kg/injection, schedule: Q01DX010 (ip), vehicle: saline",106 % of control
O=C(Nc1ccc(NC2=NCCN2)cc1)c1ccc(C(=O)Nc2ccc(NC3=NCCN3)cc2)cc1,T/C,[2],120 % of control and 121 % of control
same,T/C,[3],168 % of control
same,T/C,[8],167 % of control and 200 % of control
same,T/C,[9],107 % of control and 121 % of control
N#[N+]c1cnc([O-])[nH]c1=O,T/C,[18],100 % of control
same,T/C,[5],100 % of control and 112 % of control
same,T/C,[6],112 % of control and 118 % of control
same,T/C,[7],106 % of control
CCOC(N)=O,T/C,[16],102 % of control
same,T/C,[19],97 % of control and 102 % of control
same,T/C,"dose: 500.0 mg/kg/injection, schedule: Q01DX010 (ip), vehicle: saline",100 % of control and 102 % of control
same,T/C,"dose: 1000.0 mg/kg/injection, schedule: Q01DX010 (ip), vehicle: saline",88 % of control and 100 % of control
OCC1OC(n2cnc3c(=S)nc[nH]c32)C(O)C1O (centres undefined),T/C,[17],117 % of control
same,T/C,"dose: 80.0 mg/kg/injection, schedule: Q01DX010 (ip), vehicle: saline",170 % of control and 177 % of control
same,T/C,"dose: 160.0 mg/kg/injection, schedule: Q01DX010 (ip), vehicle: saline",180 % of control
CCN(CCNc1ccc(C)c2sc3cc(Cl)ccc3c(=O)c12)CC(C)O (centres undefined),T/C,"dose: 7.8 mg/kg/injection, schedule: Q01DX010 (ip), vehicle: saline",94 % of control
same,T/C,[14],94 % of control
same,T/C,[15],94 % of control
same,T/C,[16],88 % of control
same,T/C,[19],88 % of control
O=C(Nc1ccc(C2=NCCN2)cc1)c1cccc(C(=O)Nc2ccc(C3=NCCN3)cc2)c1,T/C,[8],121 % of control
same,T/C,[9],121 % of control
same,T/C,"dose: 32.0 mg/kg/injection, schedule: Q01DX010 (ip), vehicle: saline",157 % of control
same,T/C,[10],186 % of control and 210 % of control
CS(=O)(=O)OCCN(CCOS(C)(=O)=O)c1ccc(N=O)cc1,T/C,[1],103 % of control and 110 % of control
same,T/C,[2],96 % of control
same,T/C,"dose: 62.5 micrograms/kg/injection, schedule: Q01DX010 (ip), vehicle: saline",116 % of control
same,T/C,[20],166 % of control
same,T/C,[21],175 % of control
CN(C)[C@@H]1C(=O)C(C(N)=O)=C(O)[C@@]2(O)C(=O)C3=C(O)c4c(O)cccc4C[C@H]3C[C@@H]12,T/C,"dose: 3.75 mg/kg/injection, schedule: Q01DX010 (ip), vehicle: saline",100 % of control
same,T/C,[11],105 % of control and 107 % of control
same,T/C,[12],100 % of control and 102 % of control
same,T/C,[13],94 % of control and 100 % of control
O=C(Nc1ccc(C2=NCCN2)cc1)c1ccc(C(=O)Nc2ccc(C3=NCCN3)cc2)c([N+](=O)[O-])c1,T/C,"dose: 6.0 mg/kg/injection, schedule: Q01DX010 (ip), vehicle: saline",168 % of control
same,T/C,[8],255 % of control and 297 % of control
same,T/C,"dose: 12.0 mg/kg/injection, schedule: Q01DX010 (ip), vehicle: saline",281 % of control and 300 % of control
CCCNc1ncnc2[nH]ncc12,T/C,[22],97 % of control and 100 % of control
same,T/C,[23],97 % of control and 100 % of control
same,T/C,[24],97 % of control and 105 % of control
same,T/C,[4],100 % of control and 102 % of control
N=[N+]=CC(=O)OCC(N)C(=O)O (centres undefined),T/C,[22],106 % of control
same,T/C,[23],113 % of control
same,T/C,[24],120 % of control
same,T/C,[4],116 % of control
O=C(Nc1ccc(C2=NCCCN2)cc1)c1ccc(NC(=O)c2ccc(C3=NCCCN3)cc2)cc1,T/C,"dose: 1.0 mg/kg/injection, schedule: Q01DX010 (ip), vehicle: other",117 % of control
same,T/C,"dose: 2.0 mg/kg/injection, schedule: Q01DX010 (ip), vehicle: other",208 % of control and 222 % of control
same,T/C,[25],177 % of control
same,T/C,[26],122 % of control
O=C(Nc1ccc(C2=NCCN2)cc1)c1ccc(C(=O)Nc2ccc(C3=NCCN3)cc2)cc1,T/C,[25],168 % of control
same,T/C,[26],277 % of control and 302 % of control
same,T/C,"dose: 16.0 mg/kg/injection, schedule: Q01DX010 (ip), vehicle: other",242 % of control and 302 % of control
same,T/C,"dose: 32.0 mg/kg/injection, schedule: Q01DX010 (ip), vehicle: other",166 % of control and 231 % of control
same,T/C,"dose: 64.0 mg/kg/injection, schedule: Q01DX010 (ip), vehicle: other",168 % of control
CS(=O)(=O)OCCCl,T/C,"dose: 18.8 mg/kg/injection, schedule: Q01DX010 (ip), vehicle: saline",103 % of control
same,T/C,"dose: 37.5 mg/kg/injection, schedule: Q01DX010 (ip), vehicle: saline",106 % of control and 115 % of control
same,T/C,"dose: 75.0 mg/kg/injection, schedule: Q01DX010 (ip), vehicle: saline",100 % of control
O=C(O)c1[nH]c(=O)[nH]c(=O)c1F,T/C,[18],91 % of control
same,T/C,[5],94 % of control
same,T/C,[6],97 % of control and 100 % of control
same,T/C,[7],94 % of control and 100 % of control
COC(=O)[C@@H]1c2cc3c(c(O)c2[C@@H](OC2OC(C)C(OC)C(C)(OC)C2OC)C[C@]1(C)O)C(=O)c1c(O)cc2c(c1C3=O)O[C@H]1O[C@]2(C)[C@H](O)[C@@H](N(C)C)[C@@H]1O (some centres undefined),T/C,"dose: 63.0 micrograms/kg/injection, schedule: Q01DX010 (ip), vehicle: saline",103 % of control
same,T/C,"dose: 125.0 micrograms/kg/injection, schedule: Q01DX010 (ip), vehicle: saline",103 % of control and 105 % of control
same,T/C,[20],103 % of control and 105 % of control
same,T/C,[21],100 % of control
same,T/C,"dose: 1000.0 micrograms/kg/injection, schedule: Q01DX010 (ip), vehicle: saline",94 % of control
